The results in this text go back to patent EP1377579B1 (Aventis Pharmaceuticals Inc., priority 2000, dated 2002).

Where a name gives a salt, the structure may show the parent alone.

One assay relates to MDA-MB-435. Description: In vitro proliferation assay (MTT), MDA-MB-435. As to conditions: Homo sapiens, MDA-MB-435, MTT assay; value (SD, n) where given; read-out: MB-435 Breast (IC50 µM). It is filed as cell-based, human. Summed up:
(§1)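 IC50 values come from absorbance at 570 nm after MTT staining of cells grown with compound for 3 days. Seeding density was 1000 to 2500 cells/well, depending on the line.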

The target in a further assay is cdk4/cyclin D1 (Homo sapiens, UniProt P11802). The assay can be described thus: Cyclin-dependent kinase assay, cdk4/cyclin D1. Type of assay: biochemical. As to conditions: cyclin D1/cdk4; GST-pRb substrate, 10 µM ATP.
Sequence of cdk4/cyclin D1 (P11802 whole entry): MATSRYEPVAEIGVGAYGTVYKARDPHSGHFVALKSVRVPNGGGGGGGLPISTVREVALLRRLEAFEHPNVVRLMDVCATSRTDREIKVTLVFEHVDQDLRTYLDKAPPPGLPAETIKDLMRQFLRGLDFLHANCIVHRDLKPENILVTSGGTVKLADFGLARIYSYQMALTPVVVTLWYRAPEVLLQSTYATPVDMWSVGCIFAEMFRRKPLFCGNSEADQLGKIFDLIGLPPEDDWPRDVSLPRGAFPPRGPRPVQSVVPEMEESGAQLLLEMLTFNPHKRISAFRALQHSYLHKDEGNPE
Sequence of cdk4/cyclin D1 (P24385 whole entry partner): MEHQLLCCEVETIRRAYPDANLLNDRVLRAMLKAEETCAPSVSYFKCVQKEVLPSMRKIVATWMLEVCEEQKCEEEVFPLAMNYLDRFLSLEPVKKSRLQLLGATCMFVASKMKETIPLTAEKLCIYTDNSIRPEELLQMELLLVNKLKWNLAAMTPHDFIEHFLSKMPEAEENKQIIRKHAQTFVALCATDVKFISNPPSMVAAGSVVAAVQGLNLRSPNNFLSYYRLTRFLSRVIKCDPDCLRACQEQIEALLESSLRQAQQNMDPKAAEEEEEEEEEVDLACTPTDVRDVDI
For a further assay, the system named is Colo-205. The assay can be described thus: In vitro proliferation assay (MTT), Colo-205. It is filed as cell-based. As to conditions: Homo sapiens, COLO 205; MTT assay; value (SD, n) where given; read-out: Colo-205 Colon (IC50 µM). As to the method:
(§2) The proliferation of tumor cells can be measured using a tetrazolium salt-based assay known as the MTT (3-[4,5-Dimethylthiazol-2-yl]-2,5-diphenyltetrazolium bromide) assay. The proliferation test is performed essentially as described by Carmichael et al., Cancer Res. 47: 936-942, 1987. For the assay, the cell lines are plated onto 96 well plates at 1000 to 2500 cells/well (depending on the properties of the individual cell lines), left to attach and recover overnight. […] After 3 days, the cells are incubated with MTT dye (3-[4,5-Dimethylthiazol-2-yl]-2,5-diphenyltetrazolium bromide, Sigma # M5655, 10 mg/ml in Hank's Buffered Saline) to estimate the amount of live cells remaining vs. concentration for the test compounds. Specifically, MTT solution is added to a final concentration of […] and the plates incubated at 37 C for 2 to 4 hr. The MTT and culture medium is then removed from the cultures and 200 µl of DMSO is added to solubilize the dye from the cell layer. The absorbance at 570 nm is determined for each culture using a Spectramax plate reader (Molecular Devices).
(§3) IC50s were determined from the raw data from either the MTT or SRB assays.

For another assay, the target named is cdk1/cyclin B (Homo sapiens, UniProt P06493). Description: Cyclin-dependent kinase assay, cdk1/cyclin B. As to conditions: CDK1 IC50, nM, Histone H1, 10 µM ATP.
Sequence of cdk1/cyclin B (P06493 whole entry): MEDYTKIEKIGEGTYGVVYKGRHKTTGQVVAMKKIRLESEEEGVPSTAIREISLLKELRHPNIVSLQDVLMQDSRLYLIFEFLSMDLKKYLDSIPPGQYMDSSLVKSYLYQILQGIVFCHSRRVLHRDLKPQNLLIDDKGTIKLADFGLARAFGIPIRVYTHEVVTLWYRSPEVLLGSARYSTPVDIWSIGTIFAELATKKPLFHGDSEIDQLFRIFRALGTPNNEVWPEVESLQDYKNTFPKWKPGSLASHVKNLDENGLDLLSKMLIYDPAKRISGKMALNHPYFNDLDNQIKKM
Sequence of cdk1/cyclin B (P14635 whole entry partner): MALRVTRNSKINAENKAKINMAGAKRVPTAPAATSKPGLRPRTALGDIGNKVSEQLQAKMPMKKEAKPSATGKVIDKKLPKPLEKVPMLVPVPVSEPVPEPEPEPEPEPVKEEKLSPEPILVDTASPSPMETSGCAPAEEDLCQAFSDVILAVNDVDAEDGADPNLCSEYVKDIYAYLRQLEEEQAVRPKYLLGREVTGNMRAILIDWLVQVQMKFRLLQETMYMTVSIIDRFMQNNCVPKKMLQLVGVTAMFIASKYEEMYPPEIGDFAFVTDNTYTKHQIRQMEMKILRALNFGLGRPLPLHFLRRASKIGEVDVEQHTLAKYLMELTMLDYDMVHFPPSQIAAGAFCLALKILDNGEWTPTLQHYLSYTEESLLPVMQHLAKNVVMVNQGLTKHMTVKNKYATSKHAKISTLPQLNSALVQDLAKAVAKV
For the next assay, the system named is NCI-H460. The assay can be described thus: In vitro proliferation assay (MTT), NCI-H460. The following applies: Homo sapiens, NCI-H460; MTT assay; value (SD, n) where given; read-out: H-460 Lung (IC50 µM). Type of assay: cell-based. Here is the method:
as §2, §3
(§4) All of the cell lines were obtained from American Type Tissue Collection, with the ATCC accession number in parentheticals. MCF-7 and MDA-MB-231 cells were grown in improved minimum essential medium (Biofluids) without phenol red, supplemented with 5 % fetal bovine serum, 0.01 mg/ml gentamicin and 3 mM L-glutamine. All of the other cell lines were grown in RPMI 1640 medium (Life Technologies) supplemented with 5 % fetal bovine serum, 0.01 mg/ml gentamicin and 3 mM L-glutamine TABLE 3

Another assay concerns PC-3. Description: In vitro proliferation assay (MTT), PC-3. It is filed as cell-based, human. The following applies: Homo sapiens, PC-3, MTT assay; value (SD, n) where given; read-out: PC-3 Prostate (IC50 µM). Put shortly: as §1
In another assay the target is cdk2/cyclin E (Homo sapiens, UniProt P24941). The assay can be described thus: Cyclin-dependent kinase assay, cdk2/cyclin E. The following applies: CDK2 IC50, nM, GST-pRb substrate, 10 µM ATP.
The next assay relates to Jurkat. The assay can be described thus: In vitro proliferation assay (MTT), Jurkat. The following applies: Homo sapiens, MTT assay, value (SD, n) where given, read-out: Jurkat Leuk. (IC50 µM). Type of assay: cell-based. As to the method: as §2, §3, §4
A further assay relates to HL-60. The assay can be described thus: In vitro proliferation assay (MTT), HL-60. Type of assay: cell-based. The following applies: Homo sapiens, HL-60; MTT assay; value (SD, n) where given; read-out: HL-60 Leuk. (IC50 µM). As to the method: as §2, §3, §4

With `N[C@H]1CC[C@H](Nc2nc(NC3CCN(C(=O)COc4ccccc4)CC3)c3ncn(C4CCCC4)c3n2)CC1` [compound 28, trans-1-{4-[2-(4-Amino-cyclohexylamino)-9-cyclopentyl-9H-purin-6-ylamino]-piperidin-1-yl}-2-phenoxy-ethanone dihydrochloride], the IC50 in the assay with MDA-MB-435 was 0.21 µM; on cdk4/cyclin D1 it was 0.14 µM; in the assay with Colo-205, 0.09 µM; against cdk1/cyclin B, 20 nM; with NCI-H460 it was 0.21 µM; in the assay with PC-3 it was 0.22 µM. Besides, inhibition at cdk2/cyclin E was half-maximal at 52 nM (IC50).
In the case of `N[C@H]1CC[C@H](Nc2nc(NC3CCN(C(=O)COc4ccc(Cl)cc4)CC3)c3ncn(C4CCCC4)c3n2)CC1` [compound 31, trans-1-{4-[2-(4-Amino-cyclohexylamino)-9-cyclopentyl-9H-purin-6-ylamino]-piperidin-1-yl}-2-(4-chloro-phenoxy)-ethanone dihydrochloride], the IC50 in the assay with MDA-MB-435 was 0.17 µM; on cdk4/cyclin D1, 2.04 µM; with Colo-205, 0.04 µM; at cdk1/cyclin B, 105 nM; with NCI-H460 it was 0.19 µM; with PC-3, 0.16 µM. This compound also yielded an IC50 against cdk2/cyclin E of 5 nM.
As for `N[C@H]1CC[C@H](Nc2nc(NC3CCN(C(=O)CCc4ccccc4)CC3)c3ncn(C4CCCC4)c3n2)CC1` [compound 33, trans 1-{4-[2-(4-Amino-cyclohexylamino)-9-cyclopentyl-9H-purin-6-ylamino]-piperidin-1-yl}-3-phenyl-propan-1-one dihydrochloride], the IC50 in the assay with MDA-MB-435 was 0.26 µM; at cdk4/cyclin D1, 0.427 µM; with Colo-205, 0.07 µM; on cdk1/cyclin B it was 58 nM; in the assay with NCI-H460, 0.24 µM; in the assay with PC-3, 0.33 µM. This compound also showed an IC50 against cdk2/cyclin E of 30 nM.
`N[C@H]1CC[C@H](Nc2nc(NC3CCN(C(=O)COCc4ccccc4)CC3)c3ncn(C4CCCC4)c3n2)CC1` [compound 37, trans-1-{4-[2-(4-Amino-cyclohexylamino)-9-cyclopentyl-9H-purin-6-ylamino]-piperidin-1-yl}-2-benzyloxy-ethanone dihydrochloride]: the IC50 in the assay on MDA-MB-435 was 0.26 µM; against cdk4/cyclin D1, 1.7 µM; in the assay with Colo-205 it was under 0.02 µM; on cdk1/cyclin B, 15 nM; in the assay on NCI-H460, 0.23 µM; in the assay with PC-3 it was 0.2 µM. This compound gave an IC50 against cdk2/cyclin E of 32 nM.
Take `N[C@H]1CC[C@H](Nc2nc(NC3CCN(C(=O)CSc4ccccc4)CC3)c3ncn(C4CCCC4)c3n2)CC1` [compound 46, trans-1-{4-[2-(4-Amino-cyclohexylamino)-9-cyclopentyl-9H-purin-6-ylamino]-piperidin-1-yl}-2-phenylsulfanylethanone dihydrochloride]: the IC50 in the assay on MDA-MB-435 came to 0.17 µM; against cdk4/cyclin D1 it was 0.709 µM; with Colo-205 it was 0.06 µM; at cdk1/cyclin B, 153 nM; in the assay with NCI-H460 it was 0.17 µM; in the assay on PC-3, 0.19 µM. The compound further registered an IC50 on cdk2/cyclin E of 55 nM.
Consider `N[C@H]1CC[C@H](Nc2nc(NC3CCN(C(=O)C4CCC4)CC3)c3ncn(C4CCCC4)c3n2)CC1` [compound 63, trans-1-{4-[2-(4-Amino-cyclohexylamino)-9-cyclopentyl-9H-purin-6-ylamino]-piperidin-1-yl}-1-cyclobutyl-methanone dihydrochloride], for which the IC50 in the assay on MDA-MB-435 came to 0.17 µM; against cdk4/cyclin D1, 0.441 µM; in the assay with Colo-205 it was 0.16 µM; on cdk1/cyclin B, 23 nM; with NCI-H460, 0.24 µM; with PC-3, 0.21 µM. Further, the IC50 against cdk2/cyclin E was found to be 66 nM.
On to `N[C@H]1CC[C@H](Nc2nc(NC3CCN(S(=O)(=O)c4ccccc4)CC3)c3ncn(C4CCCC4)c3n2)CC1` [compound 105, trans-N^2-(4-Amino-cyclohexyl)-N^6-(1-benzenesulfonyl-piperidin-4-yl)-9-cyclopentyl-9H-purine-2,6-diamine dihydrochloride], for which the 50% inhibitory concentration (IC50) in the assay with MDA-MB-435 turned out to be 0.18 µM; at cdk4/cyclin D1, 0.069 µM; in the assay on Colo-205, 0.21 µM; at cdk1/cyclin B it was 7 nM; with NCI-H460 it was 0.29 µM; in the assay on PC-3, 0.5 µM. Inhibition on cdk2/cyclin E was half-maximal at 8 nM (IC50).
Take `CC1(C)C2CCC1(CS(=O)(=O)N1CCC(Nc3nc(N[C@H]4CC[C@H](N)CC4)nc4c3ncn4C3CCCC3)CC1)C(=O)C2` (stereo partly drawn) [compound 107, trans-1-{4-[2-(4-Amino-cyclohexylamino)-9-cyclopentyl-9H-purin-6-ylamino]-piperidine-1-sulfonylmethyl}-7,7-dimethyl-bicyclo[2.2.1]heptan-2-one dihydrochloride]: the IC50 in the assay on MDA-MB-435 turned out to be 0.11 µM; at cdk4/cyclin D1, 0.01 µM; in the assay on Colo-205 it was 0.18 µM; at cdk1/cyclin B, 250 nM; in the assay on NCI-H460 it was 0.29 µM; with PC-3 it was 0.41 µM. Moreover, the IC50 against cdk2/cyclin E turned out to be 35 nM.
Consider `N[C@H]1CC[C@H](Nc2nc(NC3CCN(S(=O)(=O)c4ccc(Cl)cc4)CC3)c3ncn(C4CCCC4)c3n2)CC1` [compound 108, trans-N -(4-Amino-cyclohexyl)-9-cyclopentyl-N^6-[1-(4-chloro-benzenesulfonyl)-piperidin-4-yl]-9H-purine-2,6-diamine dihydrochloride], for which the IC50 in the assay on MDA-MB-435 is 0.14 µM; against cdk4/cyclin D1 it was 0.17 µM; with Colo-205, 0.18 µM; at cdk1/cyclin B it was 7 nM; in the assay on NCI-H460, 0.29 µM; with PC-3 it was 0.43 µM. This compound returned a 50% inhibitory concentration (IC50) against cdk2/cyclin E of 10 nM.
For `Cc1noc(C)c1S(=O)(=O)N1CCC(Nc2nc(N[C@H]3CC[C@H](N)CC3)nc3c2ncn3C2CCCC2)CC1` [compound 110, trans-N^2-(4-Amino-cyclohexyl)-9-cyclopentyl-N^6-[1-(3,5-dimethyl-isoxazole-4-sulfonyl)-piperidin-4-yl]-9H-purine-2,6-diamine dihydrochloride], the half-inhibitory concentration (IC50) with MDA-MB-435 worked out at 0.44 µM; at cdk4/cyclin D1, 0.158 µM; in the assay with Colo-205, 0.25 µM; at cdk1/cyclin B it was 27 nM; with NCI-H460 it was 0.65 µM; with PC-3 it was 0.76 µM. The concentration for half-maximal inhibition (IC50) against cdk2/cyclin E turned out to be 9 nM.
As to `N[C@H]1CC[C@H](Nc2nc(NC3CCN(S(=O)(=O)c4cc(Cl)cc(Cl)c4O)CC3)c3ncn(C4CCCC4)c3n2)CC1` [compound 117, trans-2-{4-[2-(4-Amino-cyclohexylamino)-9-cyclopentyl-9H-purin-6-ylamino]-piperidine-1-sulfonyl}-4,6-dichloro-phenol dihydrochloride], the IC50 was found to be 39 µM in the assay with MDA-MB-435; 0.558 µM on cdk4/cyclin D1; 43.6 µM with Jurkat; 290 nM against cdk1/cyclin B; 24.2 µM in the assay with HL-60; 34.1 µM in the assay with PC-3. At cdk2/cyclin E, this compound yielded a concentration for half-maximal inhibition (IC50) of 31 nM.
For the compound `N[C@H]1CC[C@H](Nc2nc(NC3CCN(C(=O)Nc4ccccc4Br)CC3)c3ncn(C4CCCC4)c3n2)CC1` [compound 168, trans-4-[2-(4-Amino-cyclohexylamino)-9-cyclopentyl-9H-purin-6-ylamino]-piperidine-1-carboxylic acid (2-bromo-phenyl)-amide dihydrochloride], the IC50 with MDA-MB-435 came to 0.15 µM; on cdk4/cyclin D1, 0.111 µM; with Colo-205, 0.16 µM; at cdk1/cyclin B, 29 nM; with NCI-H460 it was 0.19 µM; in the assay on HL-60, 0.04 µM. Besides, the IC50 in the assay with PC-3 worked out at 0.19 µM; on cdk2/cyclin E it was 52 nM.
